In patent US9663526B2, “Aminopyrimidinyl compounds” (Pfizer Inc., priority 2014, dated 2017):
Read-outs that look alike come from different tables or passages of the source.

Assays:
Type in all cases: biochemical
[1] = biological target: recombinant human kinase domain of JAK1 (Homo sapiens (Human), UniProt P23458); test: JAK Caliper enzyme assay at 1 mM ATP (JAK1);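 further: microfluidic mobility-shift readout of synthetic fluorescent peptide phosphorylation, percent product converted from peak height, inhibition relative to DMSO-only wells as uninhibited baseline, room temperature incubation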
Chain of recombinant human kinase domain of JAK1 (P23458 875-1153): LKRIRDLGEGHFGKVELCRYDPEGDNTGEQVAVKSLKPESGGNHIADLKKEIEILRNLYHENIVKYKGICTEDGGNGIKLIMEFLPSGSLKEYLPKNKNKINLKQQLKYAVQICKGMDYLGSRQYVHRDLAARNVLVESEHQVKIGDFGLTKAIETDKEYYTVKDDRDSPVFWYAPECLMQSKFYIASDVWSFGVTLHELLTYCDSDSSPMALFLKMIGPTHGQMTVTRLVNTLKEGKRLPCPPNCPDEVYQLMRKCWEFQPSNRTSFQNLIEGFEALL

[2] = biological target: recombinant human kinase domain of JAK2 (Homo sapiens (Human), UniProt O60674); test: JAK Caliper enzyme assay at 1 mM ATP (JAK2);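 further: microfluidic mobility-shift read-out of fluorescent synthetic peptide phosphorylation, percent product converted from peak heights, room temperature, DMSO-only wells as uninhibited baseline, inhibition curve fit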
Chain of recombinant human kinase domain of JAK2 (O60674 849-1124): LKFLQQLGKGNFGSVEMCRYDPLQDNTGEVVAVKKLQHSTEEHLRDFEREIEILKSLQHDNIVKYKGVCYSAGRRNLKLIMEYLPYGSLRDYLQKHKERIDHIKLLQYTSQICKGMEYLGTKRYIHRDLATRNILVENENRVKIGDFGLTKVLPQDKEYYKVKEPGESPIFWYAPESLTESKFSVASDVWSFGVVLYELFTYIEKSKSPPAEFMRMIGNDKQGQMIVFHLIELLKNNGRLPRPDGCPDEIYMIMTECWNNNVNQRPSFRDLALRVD

[3] = biological target: recombinant human kinase domain of JAK3 (Homo sapiens (Human), UniProt P52333); test: JAK Caliper enzyme assay at 1 mM ATP (JAK3);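 further: microfluidic mobility-shift readout of synthetic peptide phosphorylation, percent product converted from peak heights, normalized to DMSO-only wells as uninhibited baseline, room temperature incubation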
Chain of recombinant human kinase domain of JAK3 (P52333 822-1111): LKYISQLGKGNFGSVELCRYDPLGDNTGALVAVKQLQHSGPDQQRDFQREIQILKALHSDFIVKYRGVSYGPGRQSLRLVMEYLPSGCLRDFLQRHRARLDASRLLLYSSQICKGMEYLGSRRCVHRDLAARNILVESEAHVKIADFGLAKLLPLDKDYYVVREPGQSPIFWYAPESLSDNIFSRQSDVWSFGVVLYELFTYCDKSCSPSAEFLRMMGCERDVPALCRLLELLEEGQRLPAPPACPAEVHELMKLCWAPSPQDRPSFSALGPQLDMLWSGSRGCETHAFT

[4] = biological target: recombinant human kinase domain of TYK2 (Homo sapiens (Human), UniProt P29597); test: JAK Caliper enzyme assay at 1 mM ATP (TYK2); conditions: 1 mM ATP; read-out: IC50 (nM) TYK2;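 further: microfluidic mobility-shift readout of synthetic peptide phosphorylation by TYK2, tuned to 20–30% conversion at room temperature, reaction stopped with EDTA, DMSO-only wells as uninhibited baseline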
Chain of recombinant human kinase domain of TYK2 (P29597 897-1176): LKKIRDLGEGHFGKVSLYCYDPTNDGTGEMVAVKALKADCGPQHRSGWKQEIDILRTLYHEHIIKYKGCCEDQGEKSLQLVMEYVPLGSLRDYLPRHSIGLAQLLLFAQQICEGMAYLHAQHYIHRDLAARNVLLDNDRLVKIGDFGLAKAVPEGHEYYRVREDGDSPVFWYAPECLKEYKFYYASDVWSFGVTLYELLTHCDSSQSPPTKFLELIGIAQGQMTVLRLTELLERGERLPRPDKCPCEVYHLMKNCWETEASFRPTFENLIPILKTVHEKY

[5] = 1 mM ATP, read-out: IC50 (nM) JAK1
[6] = 1 mM ATP, read-out: IC50 (nM) JAK3

Row | SMILES | IC50 [1] [nM] | IC50 [2] [nM] | IC50 [3] [nM] | IC50 [4] [nM] | IC50 [1, 5] [nM] | IC50 [3, 6] [nM]
1 | CNC(=O)c1ncc(Nc2nccc(N3C[C@H]4CC[C@@H](C3)N4[C@H]3C[C@H](C#N)C3)n2)cc1C (single isomer, unassigned) [Example 62] | 1020 | 1390 | > 10000 | 224 | – | –
2 | CNC(=O)c1ncc(Nc2nccc(N3C[C@H]4CC[C@@H](C3)N4C[C@@H]3CC3(F)F)n2)cc1C (single isomer, unassigned) [Example 67] | – | 973 | – | 108 | 418 | > 10000
3 | C[C@@H]1[C@@H]2CN(c3nc(Nc4ccc([C@@H](C)CO)nc4)ncc3F)C[C@]12NC(=O)C1CC1 (single isomer, unassigned) [Example 103] | – | 3460 | – | 150 | 1740 | > 10000
4 | C[C@H](CO)c1ccc(Nc2ncc(F)c(N3C[C@H]4[C@@H](C)[C@@]4(NC(=O)C4CC4)C3)n2)cn1 (single isomer, unassigned) [Example 104] | – | 3130 | – | 86 | 1150 | > 10000
5 | O=C(C1CC1)N1[C@@H]2CC[C@H]1CN(c1nc(Nc3ccnnc3)ncc1F)C2 [Example 1, cyclopropyl{(1R,5S)-3-[5-fluoro-2-(pyridazin-4-ylamino)pyrimidin-4-yl]-3,8-diazabicyclo[3.2.1]oct-8-yl}methanone] | – | > 10000 | – | 1100 | 2730 | > 10000
6 | CCCNC(=O)c1cc(Nc2ncc(F)c(N3C[C@H]4CC[C@@H](C3)N4C(=O)C3CC3)n2)n[nH]1 [Example 2, 3-({4-[(1R,5S)-8-(cyclopropylcarbonyl)-3,8-diazabicyclo[3.2.1]oct-3-yl]-5-fluoropyrimidin-2-yl}amino)-N-propyl-1H-pyrazole-5-carboxamide] | – | 4720 | – | 432 | 1550 | > 10000
7 | NS(=O)(=O)c1ccc(Nc2ncc(F)c(N3C[C@H]4CC[C@@H](C3)N4C(=O)C3CC3)n2)cn1 [Example 4, 5-({4-[(1R,5S)-8-(cyclopropylcarbonyl)-3,8-diazabicyclo[3.2.1]oct-3-yl]-5-fluoropyrimidin-2-yl}amino)pyridine-2-sulfonamide] | – | – | – | 176 | 659 | > 10000
8 | CCNC(=O)c1ccc(Nc2nccc(N3C[C@H]4CC[C@@H](C3)N4C(=O)CC#N)n2)cc1 [Example 13, 4-({4-[(1R,5S)-8-(cyanoacetyl)-3,8-diazabicyclo[3.2.1]oct-3-yl]pyrimidin-2-yl}amino)-N-ethylbenzamide] | – | 199 | – | – | 41 | > 10000
9 | O=C(c1ccno1)N1[C@@H]2CC[C@H]1CN(c1ccnc(Nc3cn[nH]c3)n1)C2 [Example 17, 1,2-oxazol-5-yl{(1R,5S)-3-[2-(1H-pyrazol-4-ylamino)pyrimidin-4-yl]-3,8-diazabicyclo[3.2.1]oct-8-yl}methanone] | – | 3380 | – | 242 | 684 | > 10000
10 | CNC(=O)c1ncc(Nc2nccc(N3C[C@H]4CC[C@@H](C3)N4C(=O)[C@H]3CC3(F)F)n2)cc1F [Example 28, 5-({4-[(1R,5S)-8-{[(1R)-2,2-difluorocyclopropyl]carbonyl}-3,8-diazabicyclo[3.2.1]oct-3-yl]pyrimidin-2-yl}amino)-3-fluoro-N-methylpyridine-2-carboxamide] | 1370 | 8150 | – | 736 | – | > 10000
11 | Cc1cc(Nc2nccc(N3C[C@H]4CC[C@@H](C3)N4C(=O)C3CC3(F)F)n2)cnc1C(N)=O (stereo partly drawn) [Example 34, 5-[(4-{(1R,5S)-8-[(2,2-difluorocyclopropyl)carbonyl]-3,8-diazabicyclo[3.2.1]oct-3-yl}pyrimidin-2-yl)amino]-3-methylpyridine-2-carboxamide] | – | 377 | – | – | 152 | > 10000
12 | Cn1cc(Nc2nccc(N3C[C@H]4CC[C@@H](C3)N4C(=O)[C@@H]3C[C@@H]3C#N)n2)cn1 [Example 37, (1S,2R)-2-{[(1R,5S)-3-{2-[(1-methyl-1H-pyrazol-4-yl)amino]pyrimidin-4-yl}-3,8-diazabicyclo[3.2.1]oct-8-yl]carbonyl}cyclopropanecarbonitrile] | – | 1400 | – | 250 | 467 | 8310
13 | Cn1cc(Nc2nccc(N3C[C@H]4CC[C@@H](C3)N4C(=O)[C@H]3C[C@H]3C#N)n2)cn1 [Example 38, (1R,2S)-2-{[(1R,5S)-3-{2-[(1-methyl-1H-pyrazol-4-yl)amino]pyrimidin-4-yl}-3,8-diazabicyclo[3.2.1]oct-8-yl]carbonyl}cyclopropanecarbonitrile] | – | 2330 | – | 427 | 707 | > 10000
14 | Cn1cc(Nc2nccc(N3C[C@H]4CC[C@@H](C3)N4C(=O)C3CC(F)(F)C3)n2)cn1 [Example 39, (3,3-difluorocyclobutyl)[(1R,5S)-3-{2-[(1-methyl-1H-pyrazol-4-yl)amino]pyrimidin-4-yl}-3,8-diazabicyclo[3.2.1]oct-8-yl]methanone] | – | 1170 | – | 136 | 305 | > 10000
15 | CNC(=O)c1cc(Nc2nccc(N3C[C@H]4CC[C@@H](C3)N4C(=O)[C@@H]3CC3(F)F)n2)cc(C)n1 [Example 40, 4-({4-[(1R,5S)-8-{[(1S)-2,2-difluorocyclopropyl]carbonyl}-3,8-diazabicyclo[3.2.1]oct-3-yl]pyrimidin-2-yl}amino)-N,6-dimethylpyridine-2-carboxamide] | – | 189 | – | 70 | 369 | > 10000
16 | CNC(=O)c1cc(Nc2nccc(N3C[C@H]4CC[C@@H](C3)N4C(=O)[C@@H]3CC3(F)F)n2)cc(CO)n1 [Example 41, 4-({4-[(1R,5S)-8-{[(1S)-2,2-difluorocyclopropyl]carbonyl}-3,8-diazabicyclo[3.2.1]oct-3-yl]pyrimidin-2-yl}amino)-6-(hydroxymethyl)-N-methylpyridine-2-carboxamide] | – | 279 | – | 84 | 201 | > 10000
17 | Cn1cc(Nc2nccc(N3C[C@H]4CC[C@@H](C3)N4C(=O)[C@@H]3C[C@@H]3F)n2)cn1 [Example 43, [(1S,2S)-2-fluorocyclopropyl][(1R,5S)-3-{2-[(1-methyl-1H-pyrazol-4-yl)amino]pyrimidin-4-yl}-3,8-diazabicyclo[3.2.1]oct-8-yl]methanone] | – | 2840 | – | 474 | 902 | > 10000
18 | Cn1cc(Nc2nccc(N3C[C@H]4CC[C@@H](C3)N4C(=O)NCCC#N)n2)cn1 [Example 47, (1R,5S)—N-(2-cyanoethyl)-3-{2-[(1-methyl-1H-pyrazol-4-yl)amino]pyrimidin-4-yl}-3,8-diazabicyclo[3.2.1]octane-8-carboxamide] | – | – | – | 65 | 42 | > 10000
19 | O=C([C@H]1CC1(F)F)N1[C@@H]2CC[C@H]1CN(c1ccnc(Nc3cn[nH]c3)n1)C2 [Example 50, ((1R,5S)-3-(2-((1H-Pyrazol-4-yl)amino)pyrimidin-4-yl)-3,8-diazabicyclo[3.2.1]octan-8-yl)((R)-2,2-difluorocyclopropyl)methanone] | – | 3420 | – | – | 478 | > 10000
20 | CNC(=O)c1ncc(Nc2nccc(N3C[C@H]4CC[C@@H](C3)N4CC3(C)COC3)n2)cc1C [Example 54, N,3-dimethyl-5-[(4-{(1R,5S)-8-[(3-methyloxetan-3-yl)methyl]-3,8-diazabicyclo[3.2.1]oct-3-yl}pyrimidin-2-yl)amino]pyridine-2-carboxamide] | – | – | – | 8 | 19 | 4290
21 | N#CC1(CN2[C@@H]3CC[C@H]2CN(c2ccnc(Nc4cn[nH]c4)n2)C3)CC1 [Example 71, 1-({(1R,5S)-3-[2-(1H-pyrazol-4-ylamino)pyrimidin-4-yl]-3,8-diazabicyclo[3.2.1]oct-8-yl}methyl)cyclopropanecarbonitrile] | – | – | – | 152 | 153 | > 10000
22 | CCNC(=O)c1ccc(Nc2ncc(F)c(N3C[C@H]4CC[C@@H](C3)N4C(=O)C(F)(F)F)n2)cc1C [Example 72, N-ethyl-4-({5-fluoro-4-[8-(trifluoroacetyl)-3,8-diazabicyclo[3.2.1]oct-3-yl]pyrimidin-2-yl}amino)-2-methylbenzamide] | – | 151 | – | – | 81 | 411
23 | C[C@@H]1[C@@H]2CN(c3nc(Nc4cnc([C@@H](C)O)c(Cl)c4)ncc3F)C[C@]12NC(=O)C1CC1 [Example 106, N-{(1S,5R,6R)-3-[2-({5-chloro-6-[(1R)-1-hydroxyethyl]pyridin-3-yl}amino)-5-fluoropyrimidin-4-yl]-6-methyl-3-azabicyclo[3.1.0]hex-1-yl}cyclopropanecarboxamide] | – | 9410 | – | – | – | > 10000
24 | CCNC(=O)c1ccc(Nc2ncc(F)c(N3CC4CC(C3)N4C(=O)C(F)(F)F)n2)cc1C [Example 116, N-ethyl-4-({5-fluoro-4-[6-(trifluoroacetyl)-3,6-diazabicyclo[3.1.1]hept-3-yl]pyrimidin-2-yl}amino)-2-methylbenzamide] | – | – | – | 20 | 1470 | 9820
25 | NC(=O)c1ncc(Nc2nccc(N3C[C@H]4CC[C@@H](C3)N4C(=O)[C@@H]3CC3(F)F)n2)cc1F [Example 117, 5-({4-[(1R,5S)-8-{[(1S)-2,2-Difluorocyclopropyl]carbonyl}-3,8-diazabicyclo[33.2.1]oct-3-yl]pyrimidin-2-yl}amino)-3-fluoropyridine-2-carboxamide] | – | 452 | – | – | 114 | > 10000
